In brackets after ≈: the same amount, converted by molar mass.
Columns and labels:
[1] = Solubility in acetate buffer (25 mM, pH 5), assayed by HPLC; type: physicochemical; conditions: acetate buffer 25 mM pH 5, 25° C.; for solubility at 1 day: acetate buffer, 25 °C, pH 5, aqueous buffer, thermodynamic from solid
Description: (§1) Form 1 (˜25 mg) and acetate buffer (25 mM, pH 5, 4 mL), prepared with and without sodium chloride (ionic strength adjusted to =0.1M), were placed in a glass vial which was sealed and placed on a laboratory rotator in a 25° C. incubator. After 1, 5, and 7 days the samples were filtered and assayed by HPLC.
as §1, with “Form 2” for “Form 1”

[2] = Gravimetric vapor sorption (GVS) study; type: physicochemical
Source text: FIG. 12 illustrates a GVS study of form 1 and form 2. […] This property of decreased hygroscopicity greatly aids in the preparation of solid pharmaceutical dosage forms.

[3] = Solid held in equilibrium with its saturated acetone solution at 60° C.; type: physicochemical; conditions: 60° C. for 6 days
[4] = Drug substance stability of packaged polymorph under accelerated / long term storage conditions; conditions: for degradation of packaged drug substance: double LDPE bag, heat sealed foil bag, HDPE container
Description: Form 2 of 2-(5-bromo-4-(4-cyclopropylnaphthalen-1-yl)-4H-1,2,4-triazol-3-ylthio)acetate was tested under various conditions to determine drug substance stability. […] Packaging was in a double low density polyethylene plastic bags inside a HDPE container.

Structure (SMILES) | solubility at 1 day ([1]; Form 1, NaCl (I = 0.1), Day 1) | adsorbed at high humidity (GVS) [2] | outcome of equilibration with saturated acetone solution [3] | solubility ([1]; Form 2, NaCl (I = 0.1), Day5, sample pH 4.83) | solubility ([1]; Form 2, NaCl (I = 0.1), Day 7, sample pH 4.85) | solubility ([1]; Form 2, No NaCl, Day 1, sample pH 4.91) | solubility ([1]; Form 2, No NaCl, Day5, sample pH 4.73) | solubility ([1]; Form 2, No NaCl, Day 7, sample pH 4.79) | solubility at 1 day ([1]; Form 2, NaCl (I = 0.1), Day 1) | stability in comparison to the amorphous solid state form of the carboxylic acid [4] | degradation of packaged drug substance ([4]; 6 months, accelerated conditions 40° C.-75% RH) | degradation of packaged drug substance ([4]; 12 months, long term conditions 25° C.-60% RH)
O=C(O)CSc1nnc(Br)n1-c1ccc(C2CC2)c2ccccc12 [Form 1, 2-(5-bromo-4-(4-cyclopropylnaphthalen-1-yl)-4H-1,2,4-triazol-3-ylthio)acetic acid] | 300 µg/mL (≈ 741 µM) | < 0.2 % w/w | decomposition |  |  |  |  |  |  |  |  | 
O=C(O)CSc1nnc(Br)n1-c1ccc(C2CC2)c2ccccc12 [Form 2, 2-(5-bromo-4-(4-cyclopropylnaphthalen-1-yl)-4H-1,2,4-triazol-3-ylthio)acetic acid] |  | < 0.1 % w/w |  | 0.2441 (pH 4.83) mg/mL | 0.2157 (pH 4.85) mg/mL | 0.1867 (pH 4.91) mg/mL | 0.1957 (pH 4.73) mg/mL | 0.1337 (pH 4.79) mg/mL | 219 µg/mL (≈ 542 µM) |  |  | 
O=C([O-])CSc1nnc(Br)n1-c1ccc(C2CC2)c2ccccc12.[Na+] [Form A, sodium 2-(5-bromo-4-(4-cyclopropylnaphthalen-1-yl)-4H-1,2,4-triazol-3-ylthio)acetate] |  |  |  |  |  |  |  |  |  | improvement over the solid state amorphous free acid | No degradation | no degradation

From US9296709B2, “Manufacture of 2-(5-bromo-4-(4-cyclopropylnaphthalen-1-yl)-4H-1,2,4-triazol-3-ylthio)acetic acid” (ARDEA BIOSCIENCES, INC., priority 2012, dated 2016)
